In PubChem BioAssay AID1963827 (Molecular Pharmacology Branch, DTP, NCI, 2024):

Tested on: 994946-033-R-J1-PDC complex spheroid viability
Test: Anticancer human tumor 994946-033-R-J1-PDC patient-derived melanoma cell line growth inhibition [POLQ]
Details: for IC50: curve of first compound; for viability, T/C: stronger effect = lower value
How it was run: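 Complex spheroid viability model combining PDC tumour cells with endothelial (HUVEC) and MSC stromal cells. Novobiocin, ART-558 or RP6685 were tested singly and in combination with standard and investigational anticancer drugs. Each was titrated in half-log steps from near clinical Cmax, or from 10 microM where Cmax was unknown.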

[1] = second compound 0.0316 µM, first compound 0.0316 µM
[2] = second compound 0.0316 µM, first compound 0.1 µM
[3] = second compound 0.0316 µM, first compound 0.316 µM
[4] = second compound 0.0316 µM, first compound 1 µM
[5] = second compound 0.0316 µM, first compound 3.16 µM
[6] = second compound 0.0316 µM, first compound 10 µM
[7] = second compound 0.1 µM, first compound 0.0316 µM
[8] = second compound 0.1 µM, first compound 0.1 µM
[9] = second compound 0.1 µM, first compound 0.316 µM
[10] = second compound 0.1 µM, first compound 1 µM
[11] = second compound 0.1 µM, first compound 3.16 µM
[12] = second compound 0.1 µM, first compound 10 µM
[13] = second compound 0.316 µM, first compound 0.0316 µM
[14] = second compound 0.316 µM, first compound 0.1 µM
[15] = second compound 0.316 µM, first compound 0.316 µM
[16] = second compound 0.316 µM, first compound 1 µM
[17] = second compound 0.316 µM, first compound 3.16 µM
[18] = second compound 0.316 µM, first compound 10 µM
[19] = second compound 1 µM, first compound 0.0316 µM
[20] = second compound 1 µM, first compound 0.1 µM
[21] = second compound 1 µM, first compound 0.316 µM
[22] = second compound 1 µM, first compound 1 µM
[23] = second compound 1 µM, first compound 3.16 µM
[24] = second compound 1 µM, first compound 10 µM
[25] = second compound 3.16 µM, first compound 0.0316 µM
[26] = second compound 3.16 µM, first compound 0.1 µM
[27] = second compound 3.16 µM, first compound 0.316 µM
[28] = second compound 3.16 µM, first compound 1 µM
[29] = second compound 3.16 µM, first compound 3.16 µM
[30] = second compound 3.16 µM, first compound 10 µM
[31] = second compound 10 µM, first compound 0.0316 µM
[32] = second compound 10 µM, first compound 0.1 µM
[33] = second compound 10 µM, first compound 0.316 µM
[34] = second compound 10 µM, first compound 1 µM
[35] = second compound 10 µM, first compound 3.16 µM
[36] = second compound 10 µM, first compound 10 µM
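Further: spheroids exposed to drugs for 7 days.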
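Wherever viability, T/C is given: 100% = DMSO vehicle treated spheroids.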

For CC1COCCN1c1cc(-c2ccnn2C)c2ccnc(-c3ccn[nH]3)c2n1 (centres undefined) + Nc1ccc(C#CCN(C(=O)Cc2ncc(C(F)(F)F)cc2C(F)(F)F)c2ccc(F)cc2)nn1, the IC50 (second compound 0.0316 µM) was 64.4 nM, the IC50 (second compound 0.1 µM) was 72.9 nM and the IC50 (second compound 0.316 µM) was 72.5 nM. For the same compound, the IC50 (second compound 1 µM) was 73.9 nM, the IC50 (second compound 3.16 µM) was 62 nM and the IC50 (second compound 10 µM) was 80.6 nM. For the same compound, the viability, T/C [1] was 65.8%, the viability, T/C [2] was 41.7% and the viability, T/C [3] was 21.8%. The viability, T/C [4] was 29.1%, the viability, T/C [5] was 19.8% and the viability, T/C [6] was 15.4%. It also gave a viability, T/C [7] of 86.3%, a viability, T/C [8] of 31.8% and a viability, T/C [9] of 29.6%. It also gave a viability, T/C [10] of 26%, a viability, T/C [11] of 16.3% and a viability, T/C [12] of 9.84%. For the same compound, the viability, T/C [13] was 70.5%, the viability, T/C [14] was 40.5% and the viability, T/C [15] was 26.1%. The viability, T/C [16] was 23.6%, the viability, T/C [17] was 17.5% and the viability, T/C [18] was 9.71%. It also gave a viability, T/C [19] of 75.5%, a viability, T/C [20] of 33.7% and a viability, T/C [21] of 32.9%. It also gave a viability, T/C [22] of 33.6%, a viability, T/C [23] of 15.4% and a viability, T/C [24] of 14.1%. For the same compound, the viability, T/C [25] was 60.7%, the viability, T/C [26] was 42.4% and the viability, T/C [27] was 22.1%. It also gave a viability, T/C [28] of 21.1%, a viability, T/C [29] of 25.6% and a viability, T/C [30] of 14.1%. For the same compound, the viability, T/C [31] was 76.1%, the viability, T/C [32] was 44% and the viability, T/C [33] was 21.1%. For the same compound, the viability, T/C [34] was 21.7%, the viability, T/C [35] was 21.6% and the viability, T/C [36] was 15.8%.
In the case of CC1COCCN1c1cc(C2(S(C)(=N)=O)CC2)nc(-c2ccnc3[nH]ccc23)n1 (centres undefined) + Nc1ccc(C#CCN(C(=O)Cc2ncc(C(F)(F)F)cc2C(F)(F)F)c2ccc(F)cc2)nn1, the IC50 (second compound 0.0316 µM) is reported as 2250 nM, the IC50 (second compound 0.1 µM) is reported as 5700 nM and the IC50 (second compound 0.316 µM) is reported as 2000 nM. It also gave an IC50 (second compound 1 µM) of 2540 nM, an IC50 (second compound 3.16 µM) of 5120 nM and an IC50 (second compound 10 µM) greater than 10000 nM. The viability, T/C [1] was 91.6%, the viability, T/C [2] was 93% and the viability, T/C [3] was 76.2%. For the same compound, the viability, T/C [4] was 74.6%, the viability, T/C [5] was 37.4% and the viability, T/C [6] was 42.1%. For the same compound, the viability, T/C [7] was 127%, the viability, T/C [8] was 135% and the viability, T/C [9] was 95%. For the same compound, the viability, T/C [10] was 72.4%, the viability, T/C [11] was 68.5% and the viability, T/C [12] was 37.9%. The viability, T/C [13] was 104%, the viability, T/C [14] was 86.5% and the viability, T/C [15] was 109%. It also gave a viability, T/C [16] of 59.4%, a viability, T/C [17] of 47.9% and a viability, T/C [18] of 39.5%. It also gave a viability, T/C [19] of 124%, a viability, T/C [20] of 127% and a viability, T/C [21] of 90.3%. It also gave a viability, T/C [22] of 63%, a viability, T/C [23] of 51.3% and a viability, T/C [24] of 40%. It also gave a viability, T/C [25] of 113%, a viability, T/C [26] of 110% and a viability, T/C [27] of 113%. The viability, T/C [28] was 85%, the viability, T/C [29] was 70.3% and the viability, T/C [30] was 25.3%. The viability, T/C [31] was 127%, the viability, T/C [32] was 102% and the viability, T/C [33] was 108%. For the same compound, the viability, T/C [34] was 71.2%, the viability, T/C [35] was 67.6% and the viability, T/C [36] was 49.9%.
